Test results: US4351948A, “Imidazole hydrazone derivatives” (priority 1980, dated 1982)
Where two headings read alike, the source gives them in different places.

Columns and labels:
[1] = test system: C. albicans; assay: Recovery of viable candida cells from the kidneys of infected mice (p.o. and i.v. treatment); assay type: in vivo; conditions: 25 mg/kg 1 h and 24 h after infection
Experimental: Mice receive 25×10^4 cells of C. albicans i.v. Treatments (25 mg/kg) administered in PEG/Dextrose 1 h and 24 h after infection. Animals sacrified 48 h after infection and kidneys excised, weighed, homogenized and decimal dilutions spread on glucose-peptone agar.

[2] = test system: Escherichia coli; assay: Anti-bacterial activity, zone diameter; assay type: cell-based; conditions: 50 μg, read-out: Zone diameter given by 50 μg of drug
Source text: (§1) The anti-bacterial activity of the compound HC274 according to the present invention was also compared with the activity of known anti-bacterial agents with the following results: […]

[3] = test system: Klebsiella pneumoniac; assay: Anti-bacterial activity, zone diameter; assay type: cell-based; conditions: 50 μg; Klebsiella pneumoniac; read-out: Zone diameter given by 50 μg of drug
Source text: as §1

[4] = test system: Nocardia asteroides; assay: Anti-bacterial activity, zone diameter; assay type: cell-based; conditions: 50 μg, read-out: Zone diameter given by 50 μg of drug
Source text: as §1

[5] = test system: Nocardia brasiliensis; assay: Anti-bacterial activity, zone diameter; assay type: cell-based; conditions: 50 μg, read-out: Zone diameter given by 50 μg of drug
Source text: as §1

[6] = test system: Proteus vulgaris; assay: Anti-bacterial activity, zone diameter; assay type: cell-based; conditions: 50 μg, read-out: Zone diameter given by 50 μg of drug
Source text: as §1

[7] = test system: Staphylococcus aureus; assay: Anti-bacterial activity, zone diameter; assay type: cell-based; conditions: 50 μg, read-out: Zone diameter given by 50 μg of drug
Source text: as §1

[8] = test system: Streptococcus pyrogenes; assay: Anti-bacterial activity, zone diameter; assay type: cell-based; conditions: 50 μg; Streptococcus pyrogenes; read-out: Zone diameter given by 50 μg of drug
Source text: as §1

[9] = test system: pseudomonas aeruginosa; assay: Anti-bacterial activity, zone diameter; assay type: cell-based; conditions: 50 μg; pseudomonas aeruginosa; read-out: Zone diameter given by 50 μg of drug
Source text: as §1

[10] = test system: Clostridium sporogenes ATCC 19404; assay: Minimal inhibitory concentration against anaerobic bacteria; assay type: cell-based; conditions: ATCC19404, 24 h
[11] = test system: B. uniformis ATCC 8492; assay: Antianaerobic activity, MIC by standard broth dilution method (Table II); assay type: cell-based; conditions: Bacteroides uniformis, ATCC8492, 24 h, read-out: Minimal Inhibitory Concentration (MIC)
How it was run: (§2)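 MIC determined by standard broth dilution against single strains of the anaerobes and T. vaginalis.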

[12] = test system: T. vaginalis ATCC 30001; assay: as above; assay type: cell-based; conditions: Trichomonas vaginalis, ATCC30001, 24 h, read-out: Minimal Inhibitory Concentration (MIC)
How it was run: as §2

[13] = test system: Bacteroides uniformis ATCC 8492; assay: Minimal inhibitory concentration against anaerobic bacteria; conditions: ATCC8492, 24 h
[14] = test system: Desulfovibrio desulfuricans API-CORE; assay: as above; conditions: 24 h
[15] = read-out: Minimal Inhibitory Concentration, Test 1, 24 hours at 37° C.
[16] = read-out: Minimal Inhibitory Concentration, Test 2, 24 hours at 37° C.
[17] = read-out: Minimal Inhibitory Concentration, Test 3, 24 hours at 37° C.

## Cl.Clc1ccc(/C(Cn2ccnc2)=N\Nc2ccc(Cl)cc2Cl)cc1 [HC274, (E)-1-(4-chlorophenyl)-2-(1H-imidazol-1-yl)ethanone, 2,4-dichlorophenylhydrazone, hydrochloride]
[1]; i.v.
  No. of CFU/g kidney at 48 h: 9 × 10^2 CFU/g kidney
[1]; p.o.
  No. of CFU/g kidney at 48 h: 3.3 × 10^3 CFU/g kidney
[2]
  zone of inhibition at 50 µg/disc: 0 mm
[3]
  zone of inhibition at 50 µg/disc: 0 mm
[4]
  zone of inhibition at 50 µg/disc: 11 mm
[5]
  zone of inhibition at 50 µg/disc: 12 mm
[6]
  zone of inhibition at 50 µg/disc: 0 mm
[7]
  zone of inhibition at 50 µg/disc: 8 mm
[8]
  zone of inhibition at 50 µg/disc: 9 mm
[9]
  zone of inhibition at 50 µg/disc: 0 mm
[10]; Test 1, 24 hours at 37° C.
  MIC: 2.5 µg/mL
[10]; Test 2, 24 hours at 37° C.
  MIC: 2.5 µg/mL
[10]; Test 3, 24 hours at 37° C.
  MIC: 7.5 µg/mL
[11]; Test 1
  MIC: 2.5 µg/mL
[11]; Test 2
  MIC: 2.5 µg/mL
[11]; Test 3
  MIC: 5 µg/mL
[12]; Test 1
  MIC: 5 µg/mL
[12]; Test 2
  MIC: 7.5 µg/mL
[12]; Test 3
  MIC: > 10 µg/mL
[13]; [15]
  MIC: 2.5 µg/mL
[13]; [16]
  MIC: 2.5 µg/mL
[13]; [17]
  MIC: 5 µg/mL
[14]; [15]
  MIC: 0.75 µg/mL
[14]; [16]
  MIC: 1 µg/mL
[14]; [17]
  MIC: 1 µg/mL
